# Measurements published in patent US20250144187A1, “COMBINATION OF HYDROLASES AND ANTI-MICROORGANISM DRUGS AND USES THEREOF” (CENTRE FOR EYE AND VISION RESEARCH LIMITED, priority 2023, published 2025).
# “And” between values parts separate entries of the source, which are not always exact repeats. Identical values can stand only once.
# Tests used:
# MRSA [1] = assay: Check board broth micro-dilution assay, cefdinir with lysozyme; type: cell-based, Staphylococcus aureus; details: for effect of LTA/WTA synthesis inhibitor on cefdinir/lysozyme combination (FICI): inhibitor added into bacterial suspension
# Method: 2) Check board broth micro-dilution assays. According to standard two-fold dilution method [Sun H et al., Nat Commun 11, 5263 (2020)], cefdinir at different concentration was added into fresh LB medium (or trypticase soy broth medium with 5% defibrinated horse blood) containing different concentration of human lysozyme in 96-wells plate. After well mixed, about 20 μl of 1.0×10^7 CFU/ml logarithmic cultures of MRSA, MRSE, Streptococcus pyogenes (S. py), Streptococcus mutans (S. mu), Enterococcus faecium (E. faecium), Enterococcus faecalis (E. faecalis) and Corynebacterium pseudodiphtheriticum (C. ps) were added into each well of the plate und co-incubated overnight, Wells without any drugs served as growth controls, and wells without bacteria served as background controls. The inhibition ratio was calculated as [1−(ODsample−ODbackground)/(ODcontrol−ODbackground)]×100%. Besides, bacterial growth inhibition was also monitored by serial dilution in LB-agar plate. CFU was counted by performing 10-fold serial dilution in PBS and then spotting 10 μl of dilutions in LB-agar plate. The MIC was determined as the lowest concentration of a drug that could inhibit the […] growth of microorganism by both visual CFU and OD600 using a microtiter plate reader. Fractional inhibitory concentration (FIC) and fractional inhibitory concentration index (FICI) values were determined by standard method. Briefly, FICI=MICAB/MICA+MICBA/MICB=FICA+FICB. […] Thus, there would be a series of FICI values. In most of Cases the lowest one among these values was listed to reflect the best achieving degree of combination therapy. In terms of the lowest FICI, FICI≤0.5, 0.5<FICI<1 or FICI≥1, would indicate the combination has synergy, part synergy or non-synergy effects, respectively.
# MRSA in ARPE-19 cells = assay: Cell-based infection model, auranofin/lysozyme; details: ≥0.34 μg/ml auranofin combined with 0.5 mg/ml lysozyme
# [2] = tested on: methicillin-resistant Staphylococcus aureus USA 300 (MRSA, ATCC-BAA1556); assay: Check board broth micro-dilution assay, auranofin with human lysozyme; type: cell-based
# Method: Then, about 5.0×10^5 colony-forming units (CFUs) of methicillin-resistant Staphylococcus aures (MRSA, USA300 strain) in log phase were added into each well for overnight culture. Bacterial growth inhibition was monitored by optical density at 600 nm (OD600) and colony units in serial dilution in LB agar plate. Well without any drug served as growth control, and well without bacteria served as background control. The inhibition ratio was calculated as […]. CFUs were counted by 10-fold serial dilution in phosphate buffered saline (PBS) and 10 μl of dilutions were spotted in LB agar plate. […] Briefly, FICI=MICAB/MICA+MICBA/MICB=FICA+FICB. […] Thus, there would be a series of FICI values. In most of cases, the lowest one among these values was listed to reflect the best achieving degree of combination therapy. In terms of the lowest FICI, FICI≤0.5, 0.5<FICI<1 or FICI≥1, would indicate whether the combination has synergy, part synergy or non-synergy effects, respectively. Besides, to better highlight the inhibition degree of bacterial growth in combination therapy or identify whether combination therapy has synergy effect, results might be shown by heat-maps or line-charts containing different FICI values, although they were performed by using same 2-fold dilution method. All assays were performed in triplicate.
# MRSA [3] = assay: ATP level, auranofin/lysozyme; type: cell-based, Staphylococcus aureus; details: 0.5 mg/ml lysozyme and 0.34 μg/ml auranofin
# Method: 8) ATP level. […] Those without any treatment served as control group. Alter 1 hour incubation at 37° C. all bacteria were collected and washed by cold PBS for 3 times. […] Then, 20 μl of each supernatant were added white 96-well plate pre-reactivated by 100 μl of ATP test solution (Beyotime) to perform luminometer measurement.
# ARPE-19 cells = assay: Toxicity analysis of auranofin by CCK-8 kit; type: cell-based, human; details: uninfected cells
# Source text: FIG. 10: Toxicity analysis of auranofin on ARPE-19 cells by using CCK-8 kit.
# MRSA [4] = assay: TMT proteomics analysis and PRM validation, auranofin/lysozyme; details: auranofin + lysozyme combination vs lysozyme alone, 5 hours
# MRSA [5] = assay: Time-killing curves, auranofin/lysozyme; type: cell-based, Staphylococcus aureus; details: for inhibition effect on growth of MRSA at exponential phase: drug alone: 0.34 μg/ml auranofin or 0.5 mg/ml lysozyme
# Method: 2) Time-killing curves According to standard method [K. R. V. Thappeta et al., (2020) ACS Infect Dis 6: 1228-1237], over-night cultured MRSA was diluted and aliquoted into new sterile tubes at 1:1000 ratio. Then, the bacterial suspension was co-cultured with […] auranofin, 0.5 mg/ml lysozyme or their combination at 37° C. with shaking at 200 rpm. Similar bacterial suspension without any additions served as control group. Then, 20 μl of each culture was extracted at time intervals of […] and 22 hours to determine CFUs by spotting 10 μl of 10-fold dilution on the LB agar plates and incubating at 37° C. for 24 hours prior to enumeration. All assays were performed in triplicate.
# MRSA biofilm = assay: Biofilm crystal violet assay, auranofin/lysozyme; type: cell-based, Staphylococcus aureus
# Method: 3) Biofilm assays According to described previously method [K. R. V. Thappeta et al., (2020) ACS infect Dis 6: 1228-1237], biofilm inhibition was assessed by using an adherence assay on 96-well tissue culture plates. Briefly, bacterial suspensions (1×10^6 (CFU/ml) were exposed to 0.34 μg/ml auranofin in LB medium in the absence and presence of 0.5 mg/ml lysozyme. LB medium with or without bacteria served as […] control group, respectively. After overnight incubation at 37° C. bacterial suspensions were removed, and the wells were gently washed twice with sterile PBS to remove exclusively non-adherent bacteria. The adherent biofilms were fixed by using 95% methanol at 60° C. for 15 minutes. Then, biofilms were stained with 1% crystal violet (100 μl/well) at 37° C. for 15 minutes, followed by gently washing with PBS to remove redundant crystal violet. Finally, the dye was solubilized with 150 μl of 95% ethanol per well at 37° C. for 30 minutes. The optical density of solution in each well was measured at 590 nm using a micro-plate reader. Herein, strong biofilm, weak biofilm and no biofilm wen defined as “ODsample≥2 ODnegative control”, “ODnegative control<ODsample<2 ODnegative control” and “ODsample≤ODnegative control”, respectively. All assays were performed in triplicate.
# MRSA [6] = assay: Resistance development study (serial passages), auranofin/lysozyme; type: cell-based, Staphylococcus aureus; details: combination with lysozyme compared with auranofin alone
# Method: 4) Resistance development study. As described before [Y, Lau et al., (2020) Adv Sci 7:1902227]. MRSA at exponential phase was diluted (1:1000) into fresh LB medium containing different concentrations of auranofin, lysozyme or their combination. After 1 passage (24 hours) at 37° C., MIC of culture was determined by standard two-fold serial dilutions. Next, this culture with higher MIC was further diluted into similar LB medium but with higher concentrations of compounds for next passages. The process was repeated for 18 days. By analyzing initial MICs of auranofin or lysozyme, fold-changes in MI s of these compounds were calculated. Assays were performed in triplicate.
# MRSA [7] = assay: Mutation frequency and prevention concentration analysis, auranofin/lysozyme; type: cell-based, Staphylococcus aureus
# Source text: 5) Mutation frequency and prevention concentration analysis.
# MRSA [8] = assay: Check board broth micro-dilution assay, tedizolid phosphate with lysozyme; type: cell-based, Staphylococcus aureus
# Method: (§1) 2) Check board broth micro-dilution assays. According to standard two-fold dilution method [Sun. H et al., Nat. Commun. 11, 5263 (2020) tedizolid phosphate at different concentrations were added into fresh LB medium (or trypticase soy troth medium with 5% defibrinated horse blood) containing different concentrations of human lysozyme in 96-well plate. Then, 20 μl of 1.0×10^7 CFU/ml logarithmic cultures of MRSA or MRSE were added into each well of the plate and co-incubated overnight. Drug-free LB medium in the absence or presence of bacteria served as background control and growth control group, respectively. […] Thus, there would be a series of FICI values. In most of cases, the lowest one among these values was listed to reflect the best achieving degree of combination therapy. In terms of the lowest FICI, FICI≤0.5, 0.5<FICI<1 or FICI≥1, would indicate the combination has synergy, part synergy or non-synergy effects, respectively.
# MRSE [9] = assay: Check board broth micro-dilution assay, cefdinir with lysozyme; type: cell-based, Staphylococcus epidermidis; details: lysozyme alone
# Method: 2) Check board broth micro-dilution assays. According to standard two-fold dilution method [Sun H et al., Nat Commun 11, 5263 (2020)], cefdinir at different concentration was added into fresh LB medium (or trypticase soy broth medium with 5% defibrinated horse blood) containing different concentration of human lysozyme in 96-wells plate. After well mixed, about 20 μl of 1.0×10^7 CFU/ml logarithmic cultures of MRSA, MRSE, Streptococcus pyogenes (S. py), Streptococcus mutans (S. mu), Enterococcus faecium (E. faecium), Enterococcus faecalis (E. faecalis) and Corynebacterium pseudodiphtheriticum (C. ps) were added into each well of the plate und co-incubated overnight, Wells without any drugs served as growth controls, and wells without bacteria served as background controls. The inhibition ratio was calculated as [1−(ODsample−ODbackground)/(ODcontrol−ODbackground)]×100%. Besides, bacterial growth inhibition was also monitored by serial dilution in LB-agar plate. CFU was counted by performing 10-fold serial dilution in PBS and then spotting 10 μl of dilutions in LB-agar plate. The MIC was determined as the lowest concentration of a drug that could inhibit the […] growth of microorganism by both visual CFU and OD600 using a microtiter plate reader. Fractional inhibitory concentration (FIC) and fractional inhibitory concentration index (FICI) values were determined by standard method. […]
# MRSE [10] = assay: Check board broth micro-dilution assay, tedizolid phosphate with lysozyme; type: cell-based, Staphylococcus epidermis; details: lysozyme alone
# Method: as §1
compound,measurement,setting,value
O=C(COC(=O)Cc1coc2ccc3ccccc3c12)Nc1nnc(-c2ccccc2)o1 [LtaS-IN-1],effect of LTA/WTA synthesis inhibitor on cefdinir/lysozyme combination (FICI),MRSA [1],abolish the combination effect
CCN(CC)c1nc2c(S(=O)(=O)c3ccc(Cl)cc3)nnn2c2cc(OC)c(OC)cc12 [Targocil],effect of LTA/WTA synthesis inhibitor on cefdinir/lysozyme combination (FICI),MRSA [1],abolish the combination effect
"CC(=O)OC[C@H]1O[C@@H]([S-])[C@H](OC(C)=O)[C@@H](OC(C)=O)[C@@H]1OC(C)=O.CCP(CC)CC.[Au+] [auranofin, Auranofin]",drop of bacterial load in infected ARPE-19 cells,MRSA in ARPE-19 cells,10^2 fold
same,bacterial load in infected ARPE-19 cells,MRSA in ARPE-19 cells; MOI 5,10^5 CFU/ml
same,fractional inhibitory concentration index (FICI),[2]; auranofin in combination with lysozyme,0.266
same,ATP level,MRSA [3],significantly reduced
same,IC50 of auranofin on ARPE-19 cells,ARPE-19 cells,2.21±0.34 μg/ml
same,CopZ over-expression,MRSA [4],21 fold
same,N-acetylmuramoyl-L-alanine amidase domain (Q2G222) overexpression,MRSA [4],~1.84 fold
same,protein level of walR (Q7A8E1),MRSA [4],~0.68 fold
same,bacterial load,"MRSA [5]; 0.34 μg/ml auranofin + 0.5 mg/ml lysozyme, reduced from the level of 10^10",10^5 CFU/ml
same,inhibition effect on growth of MRSA at exponential phase,MRSA [5],few inhibitions effect
same,"biofilm-based absorbance at 590 nm, pre-biofilm stage",MRSA biofilm; 0.34 μg/ml auranofin + 0.5 mg/ml lysozyme,biofilm had been absolutely removed
same,"biofilm-based absorbance at 590 nm, post-biofilm stage",MRSA biofilm; auranofin + lysozyme combination after biofilm had appeared,the decrease was not observed after biofilm had appeared
same,development of auranofin resistance,MRSA [6],did suppress the development of auranofin resistance
same,gene mutation frequency,MRSA [7]; 0.34 μg/ml auranofin + 2 mg/ml lysozyme,≤ 1×10^−9
same,gene mutation frequency,MRSA [7]; 0.34 μg/ml auranofin without lysozyme,≥ 9×10^−6
lysozyme: Human lysozyme (C-type) supplied by Sigma-Aldrich; hydrolase used in combination with the drugs,minimum inhibitory concentration (MIC) of human lysozyme,MRSA [8]; lysozyme alone,> 150 mg/mL
same,reduction of the MIC value of lysozyme,MRSA [8]; with tedizolid phosphate at ca. 0.19 μg/ml,1200 fold
same,MIC value of lysozyme,"MRSA [8]; with tedizolid phosphate at ca. 0.19 μg/ml (0.4 μM, 0.004 MIC)",0.1235 mg/mL
same,minimum inhibitory concentration (MIC) of human lysozyme,MRSE [9],> 150 mg/mL
same,minimum inhibitory concentration (MIC) of human lysozyme,MRSA [1]; lysozyme alone,> 150 mg/mL and 150 mg/mL
same,drop of MIC value of lysozyme,MRSA [1]; with cefdinir at ca. 0.75 μg/ml,1200 folds
same,MIC value of lysozyme,MRSA [1]; with cefdinir at ca. 0.75 μg/ml (1.89 μM),0.125 mg/mL
same,lysozyme level to which MRSA is sensitive (MIC),[2]; 0.17 μg/ml auranofin used in combination,1.0 mg/mL
same,lysozyme level to which MRSA is sensitive (MIC),[2]; lysozyme alone,≥ 150 mg/mL
same,inhibition effect on growth of MRSA at exponential phase,MRSA [5],few inhibitions effect
same,minimum inhibitory concentration (MIC) of human lysozyme,MRSE [10],> 150 mg/mL
